# Assay results published in patent US6387943B1, “Vancoresmycin, a process for its production and its use as a pharmaceutical” (Aventis Pharma Deutschland GmbH, priority 1998, dated 2002).
# Columns and labels:
# Ent. hirae 55 = assay: Minimum inhibitory concentration (MIC); type: cell-based; conditions: Enterococcus hirae
# S. aureus 20424 = assay: Minimum inhibitory concentration (MIC); type: cell-based; conditions: Staphylococcus aureus
# S. epidermidis 607 = assay: Minimum inhibitory concentration (MIC); type: cell-based; conditions: Staphylococcus epidermidis
# S. aureus E-712 = assay: Minimum inhibitory concentration (MIC); type: cell-based; conditions: Staphylococcus aureus, E712
# Ent. faecalis D 756 = assay: Minimum inhibitory concentration (MIC); type: cell-based; conditions: Enterococcus faecalis, D756
# Ent. durans 4939H = assay: Minimum inhibitory concentration (MIC); type: cell-based; conditions: Enterococcus durans
# [1] = Solubility (physico-chemical properties); type: physicochemical; conditions: solvents in which soluble
# S. aureus Chantot 31153 = assay: Minimum inhibitory concentration (MIC); type: cell-based; conditions: Staphylococcus aureus, CHANTOT31153
# S. epidermidis 825 = assay: Minimum inhibitory concentration (MIC); type: cell-based; conditions: Staphylococcus epidermidis
# [2] = system: Pseudomonas aeruginosa M35; assay: Minimum inhibitory concentration (MIC); type: cell-based
# [3] = system: vancomycin- and teicoplanin-resistant strains; assay: Antibiotic activity against resistant strains; type: cell-based
# S. aureus SG511 = assay: Minimum inhibitory concentration (MIC); type: cell-based; conditions: Staphylococcus aureus
# S. aureus 20240 = assay: Minimum inhibitory concentration (MIC); type: cell-based; conditions: Staphylococcus aureus
# Ent. faecalis D 23241 = assay: Minimum inhibitory concentration (MIC); type: cell-based; conditions: Enterococcus faecalis, D23241
# Ent. faecium VR-1 = assay: Minimum inhibitory concentration (MIC); type: cell-based; conditions: Enterococcus faecium, VR1; Ent. faecium VR-1 (resistant to vancomycin)
# Ent. faecalis D 21777 = assay: Minimum inhibitory concentration (MIC); type: cell-based; conditions: Enterococcus faecalis, D21777
# E. coli super sen. 2231 = assay: Minimum inhibitory concentration (MIC); type: cell-based; conditions: Escherichia coli
# S. aureus MLS-16 = assay: Minimum inhibitory concentration (MIC); type: cell-based; conditions: Staphylococcus aureus, MLS16
# Ent. faecalis D 26777 = assay: Minimum inhibitory concentration (MIC); type: cell-based; conditions: Enterococcus faecalis, D26777
# S. aureus Brussel 4115 = assay: Minimum inhibitory concentration (MIC); type: cell-based; conditions: Staphylococcus aureus, BRUSSEL4115
# S. aureus 503(Mers) = assay: Minimum inhibitory concentration (MIC); type: cell-based
# S. aureus Wein 12 = assay: Minimum inhibitory concentration (MIC); type: cell-based; conditions: Staphylococcus aureus, WEIN12
# Ent. faecalis D 7F = assay: Minimum inhibitory concentration (MIC); type: cell-based; conditions: Enterococcus faecalis, D7F
# Ent. faecium D-65 = assay: Minimum inhibitory concentration (MIC); type: cell-based; conditions: Enterococcus faecium, D65
# Ent. faecium P-1 = assay: Minimum inhibitory concentration (MIC); type: cell-based; conditions: Enterococcus faecium, P1
# S. aureus Wein 11 = assay: Minimum inhibitory concentration (MIC); type: cell-based; conditions: Staphylococcus aureus, WEIN11
# S. aureus E-710 = assay: Minimum inhibitory concentration (MIC); type: cell-based; conditions: Staphylococcus aureus, E710
# Ent. faecium 5601 (H) = assay: Minimum inhibitory concentration (MIC); type: cell-based; conditions: Enterococcus faecium
# [4] = system: Staphylococcus aureus 209P; assay: Minimum inhibitory concentration (MIC); type: cell-based
# S. haemolyticus 809 = assay: Minimum inhibitory concentration (MIC); type: cell-based; conditions: Staphylococcus haemolyticus
# S. aureus 3066 = assay: Minimum inhibitory concentration (MIC); type: cell-based; conditions: Staphylococcus aureus; S. aureus 3066 (resistant strain to methicillin)
# Ent. faecium P-2 = assay: Minimum inhibitory concentration (MIC); type: cell-based; conditions: Enterococcus faecium, P2
# S. warneri 6563 II (2) = assay: Minimum inhibitory concentration (MIC); type: cell-based; conditions: Staphylococcus warneri
# Escherichia coli 9632 = assay: Minimum inhibitory concentration (MIC); type: cell-based
# [5] = system: Enterococcus faecalis ATCC 29212; assay: Minimum inhibitory concentration (MIC); type: cell-based; conditions: ATCC29212
# S. epidermidis 5747 IW = assay: Minimum inhibitory concentration (MIC); type: cell-based; conditions: Staphylococcus epidermidis
# S. epidermidis 823 = assay: Minimum inhibitory concentration (MIC); type: cell-based; conditions: Staphylococcus epidermidis
structure (smiles),measurement,setting,value
C/C(=C\CC(O)CC(O)CCC(C)C(O)C(C)C(O)CCCC(O)C(C)C(O)/C(C)=C/C(C)C(=O)/C(C)=C/C(O)C(O)CC(O)CC(OC1OC(C)C(O)C(N)C1O)C(C)CCC(O)CC(O)CCC(C)C(O)C(C)C(O)C(C)C)C(=O)C1=C(O)/C(=C/C(C)C)N(C)C1=O (stereo not shown) [Vancoresmycin],MIC,Ent. hirae 55,0.39 µg/mL
same,MIC,S. aureus 20424,0.1 µg/mL
same,MIC,S. epidermidis 607,0.1 µg/mL
same,MIC,S. aureus E-712,0.1 µg/mL
same,MIC,Ent. faecalis D 756,0.39 µg/mL
same,MIC,Ent. durans 4939H,0.39 µg/mL
same,Solubility,[1],"Methanol, DMSO"
same,MIC,S. aureus Chantot 31153,0.05 µg/mL
same,MIC,S. epidermidis 825,0.1 µg/mL
same,MIC,[2],> 100 µg/mL
same,antibiotic activity,[3],active
same,MIC,S. aureus SG511,0.05 µg/mL
same,MIC,S. aureus 20240,0.05 µg/mL
same,MIC,Ent. faecalis D 23241,0.39 µg/mL
same,MIC,Ent. faecium VR-1,0.39 µg/mL
same,MIC,Ent. faecalis D 21777,0.39 µg/mL
same,MIC,E. coli super sen. 2231,> 100 µg/mL
same,MIC,S. aureus MLS-16,0.39 µg/mL
same,MIC,Ent. faecalis D 26777,0.39 µg/mL
same,MIC,S. aureus Brussel 4115,0.05 µg/mL
same,MIC,S. aureus 503(Mers),0.025 µg/mL
same,MIC,S. aureus Wein 12,0.05 µg/mL
same,MIC,Ent. faecalis D 7F,0.39 µg/mL
same,MIC,Ent. faecium D-65,0.39 µg/mL
same,MIC,Ent. faecium P-1,0.39 µg/mL
same,MIC,S. aureus Wein 11,0.05 µg/mL
same,MIC,S. aureus E-710,0.1 µg/mL
same,MIC,Ent. faecium 5601 (H),0.39 µg/mL
same,MIC,[4],0.05 µg/mL
same,MIC,S. haemolyticus 809,0.05 µg/mL
same,MIC,S. aureus 3066,0.1 µg/mL
same,MIC,Ent. faecium P-2,0.39 µg/mL
same,MIC,S. warneri 6563 II (2),0.1 µg/mL
same,MIC,Escherichia coli 9632,> 100 µg/mL
same,MIC,[5],0.39 µg/mL
same,MIC,S. epidermidis 5747 IW,0.1 µg/mL
same,MIC,S. epidermidis 823,0.2 µg/mL
